Measured values: patent US20260092061A1, “COMPOUNDS FOR TARGETED PROTEIN DEGRADATION” (Amphista Therapeutics Limited, priority 2022, published 2026)
Like-named read-outs stand apart in the source and are kept apart here.

Target: T1, BRD9 (Homo sapiens, UniProt Q9H8M2)
T1 sequence (Q9H8M2 1-597): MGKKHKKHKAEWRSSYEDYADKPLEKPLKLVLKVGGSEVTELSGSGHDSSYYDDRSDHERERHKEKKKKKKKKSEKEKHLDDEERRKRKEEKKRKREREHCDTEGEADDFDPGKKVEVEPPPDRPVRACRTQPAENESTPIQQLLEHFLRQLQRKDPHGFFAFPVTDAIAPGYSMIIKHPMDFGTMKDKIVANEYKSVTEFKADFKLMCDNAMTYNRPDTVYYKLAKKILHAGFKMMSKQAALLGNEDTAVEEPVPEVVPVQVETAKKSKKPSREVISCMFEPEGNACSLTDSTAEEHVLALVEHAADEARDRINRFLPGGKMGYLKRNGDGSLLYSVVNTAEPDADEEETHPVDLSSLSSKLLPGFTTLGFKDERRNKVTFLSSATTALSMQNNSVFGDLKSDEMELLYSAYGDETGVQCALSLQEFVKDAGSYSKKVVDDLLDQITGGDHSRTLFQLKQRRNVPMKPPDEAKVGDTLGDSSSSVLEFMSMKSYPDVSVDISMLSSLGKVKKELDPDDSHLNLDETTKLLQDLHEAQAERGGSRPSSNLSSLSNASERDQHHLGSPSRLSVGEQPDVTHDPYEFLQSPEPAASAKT
Test: Degradation of BRD9 (IF), immunofluorescence in MV4-11 cells, 24 hours (Assay Protocol 2)
Assay type: cell-based
Parameters: A suspension of MV4-11 cells (ATCC CRL-9591) was prepared; host or cells: MV4-11
Conditions: BRD9 degradation
Protocol: Assay Protocol 2—Degradation of BRD9 (IF)
A suspension of MV4-11 cells (ATCC CRL-9591) was prepared in phenol red-free assay media (IMDM Thermo Scientific 21056023+10% FBS ATCC 302025) and cells were seeded at 20,000 cells per well (45 μL) in sterile black poly-d-lysine coated 384 well plates (Greiner 781948). Compounds were prepared at 1000× final concentration in DMSO, diluted 1:100 in assay media, and 5 μL compound was added to each well of the cell plate. Cells were incubated for 24 hours at 37° C. with 5% CO2. All the following incubations for immunofluorescence staining were at room temperature. 15 μL of 16% PFA was added to each well (3.7% final concentration) and the cells were fixed for 15 min then washed twice with DPBS. Cells were permeabilised with 0.1% Triton X-100 for 10 min, Triton X-100 was removed, then blocked with 1% BSA in DPBS for 1 hour. Cells were stained with 25 μL anti-BRD9 E4Q3F antibody (CST 48306) diluted 1:25600 in 1% BSA in DPBS for 2-3 hours. Wels were washed twice with DPBS then incubated with 25 μL of 1% BSA containing a 1:1000 dilution of Anti-rabbit Alexa Fluor™ 647 secondary antibody (Thero Scientific A21244) and 1 μg/mL Hoechst nuclear counter stain (Abcam ab228551) for 1 hour. Wells were washed twice with DPBS prior to imaging on a Perkin Elmer Operetta CLS with 10× air lens. Images were processed using Harmony High-Content Imaging and Analysis Software (Perkin Elmer) and the mean contrast ratio of Alexa Fluor™ 647 in central nuclei was used to quantify BRD9 protein levels. Data was further analysed using Dotmatics software and % BRD9 remaining was calculated by normalisation to average data from high and low control wells (cells treated with DMSO or 100 nM CFT-8634 respectively).

[1] = Assay protocol 2, read-out: DC50
[2] = MV4-11, Assay protocol 2, read-out: Dmax

Compound	DC50 [1] [nM]	Dmax [2] [%]	Dmax (MV4-11, Table 4, determined according to Assay Protocol 2, read-out: Dmax^2) [%]	DC50 (Table 4, determined according to Assay Protocol 2, read-out: DC50^2) [nM]
COc1cc(-c2cn(C)c(=O)c(C)c2C)cc(OC)c1CN1C2CC1CN(C(=O)/C(C#N)=C/c1cc(C)on1)C2 (mixture of isomers) [BRD9y, (E/Z)-2-(6-(2,6-dimethoxy-4-(1,4,5-trimethyl-6-oxo-1,6-dihydropyridin-3-yl)benzyl)-3,6-diazabicyclo[3.1.1]heptane-3-carbonyl)-3-(5-methylisoxazol-3-yl)acrylonitrile]			30 to 50	< 25
COc1cc(-c2cn(C)c(=O)c(C)c2C)cc(OC)c1CN1CCC(Oc2cccc3c2CCN(C(=O)/C(C#N)=C/c2ccc(C(F)(F)F)cn2)C3C)CC1 (mixture of isomers) [Compound B64, (E/Z)-2-(5-((1-(2,6-dimethoxy-4-(1,4,5-trimethyl-6-oxo-1,6-dihydropyridin-3-yl)benzyl)piperidin-4-yl)oxy)-1-methyl-1,2,3,4-tetrahydroisoquinoline-2-carbonyl)-3-(5-(trifluoromethyl)pyridin-2-yl)acrylonitrile]	< 1.25	> 75		
COc1cc(-c2cn(C)c(=O)c(C)c2C)cc(OC)c1CN1CCCN(Cc2cccc3c2CCN(C(=O)/C(C#N)=C/c2cccc(C(F)(F)F)n2)C3C)CC1 (mixture of isomers) [Compound B68, (E/Z)-2-(5-((4-(2,6-dimethoxy-4-(1,4,5-trimethyl-6-oxo-1,6-dihydropyridin-3-yl)benzyl)-1,4-diazepan-1-yl)methyl)-1-methyl-1,2,3,4-tetrahydroisoquinoline-2-carbonyl)-3-(6-(trifluoromethyl)pyridin-2-yl)acrylonitrile]	< 1.25	> 75		
COc1cc(-c2cn(C)c(=O)c(C)c2C)cc(OC)c1CN1CCN(Cc2cccc3c2CCN(C(=O)/C(C#N)=C/C2CCOCC2)C3C)CC1 (mixture of isomers) [Compound B69, (E/Z)-2-(5-((4-(2,6-dimethoxy-4-(1,4,5-trimethyl-6-oxo-1,6-dihydropyridin-3-yl)benzyl)piperazin-1-yl)methyl)-1-methyl-1,2,3,4-tetrahydroisoquinoline-2-carbonyl)-3-(tetrahydro-2H-pyran-4-yl)acrylonitrile]	1.25 to 10	40 to 70		
COc1cc(-c2cn(C)c(=O)c(C)c2C)cc(OC)c1CN1CCN(Cc2cccc3c2CCN(C(=O)/C(C#N)=C/c2cccnc2OC)C3C)CC1 (mixture of isomers) [Compound B70, (E/Z)-2-(5-((4-(2,6-dimethoxy-4-(1,4,5-trimethyl-6-oxo-1,6-dihydropyridin-3-yl)benzyl)piperazin-1-yl)methyl)-1-methyl-1,2,3,4-tetrahydroisoquinoline-2-carbonyl)-3-(2-methoxypyridin-3-yl)acrylonitrile]		40 to 70		
COc1cc(-c2cn(C)c(=O)c(C)c2C)cc(OC)c1CN1CCN(Cc2cccc3c2CCN(C(=O)/C(C#N)=C/C2CCC(F)(F)CC2)C3C)CC1 (mixture of isomers) [Compound B72, (E/Z)-3-(4,4-difluorocyclohexyl)-2-(5-((4-(2,6-dimethoxy-4-(1,4,5-trimethyl-6-oxo-1,6-dihydropyridin-3-yl)benzyl)piperazin-1-yl)methyl)-1-methyl-1,2,3,4-tetrahydroisoquinoline-2-carbonyl)acrylonitrile]	1.25 to 10	40 to 70		
COc1cc(-c2cn(C)c(=O)c(C)c2C)cc(OC)c1CN1CCN(Cc2cccc3c2CCN(C(=O)/C(C#N)=C/C2CCCCC2)C3C)CC1 (mixture of isomers) [Compound B73, (E/Z)-3-cyclohexyl-2-(5-((4-(2,6-dimethoxy-4-(1,4,5-trimethyl-6-oxo-1,6-dihydropyridin-3-yl)benzyl)piperazin-1-yl)methyl)-1-methyl-1,2,3,4-tetrahydroisoquinoline-2-carbonyl)acrylonitrile]	25 to 1000	40 to 70		
COc1cc(-c2cn(C)c(=O)c(C)c2C)cc(OC)c1CN1CCN(Cc2cccc3c2CCN(C(=O)/C(C#N)=C/c2cccc(C#N)c2)C3C)CC1 (mixture of isomers) [Compound B74, (E/Z)-3-(2-cyano-3-(5-((4-(2,6-dimethoxy-4-(1,4,5-trimethyl-6-oxo-1,6-dihydropyridin-3-yl)benzyl)piperazin-1-yl)methyl)-1-methyl-3,4-dihydroisoquinolin-2(1H)-yl)-3-oxoprop-1-en-1-yl) benzonitrile]	< 1.25	40 to 70		

Further lines, with some results ahead:

DC50 [1] [nM]	Dmax [2] [%]	Compound	Dmax (MV4-11, Table 4, determined according to Assay Protocol 2, read-out: Dmax^2) [%]	DC50 (Table 4, determined according to Assay Protocol 2, read-out: DC50^2) [nM]
1.25 to 10	> 75	COc1cc(-c2cn(C)c(=O)c(C)c2C)cc(OC)c1CN1CCC(Oc2cccc(C3CCCN3C(=O)/C(C#N)=C/C(C)(C)C)c2)CC1 (mixture of isomers) [Compound B48, (E/Z)-2-(2-(3-((1-(2,6-dimethoxy-4-(1,4,5-trimethyl-6-oxo-1,6-dihydropyridin-3-yl)benzyl)piperidin-4-yl)oxy)phenyl)pyrrolidine-1-carbonyl)-4,4-dimethylpent-2-enenitrile]		
1.25 to 10	> 75	COc1cc(-c2cn(C)c(=O)c(C)c2C)cc(OC)c1CN1CCN(Cc2cccc3c2CCN(C(=O)/C(C#N)=C/c2cccc(Br)n2)C3C)CC12CC2 (mixture of isomers) [Compound B61, (E/Z)-3-(6-bromopyridin-2-yl)-2-(5-((4-(2,6-dimethoxy-4-(1,4,5-trimethyl-6-oxo-1,6-dihydropyridin-3-yl)benzyl)-4,7-diazaspiro[2.5]octan-7-yl)methyl)-1-methyl-1,2,3,4-tetrahydroisoquinoline-2-carbonyl)acrylonitrile]		
1.25 to 10	> 75	COc1cc(-c2cn(C)c(=O)c(C)c2C)cc(OC)c1CN1CC(Oc2cccc(C3CCCN3C(=O)/C(C#N)=C/C(C)(C)C)c2)C1 (mixture of isomers) [Compound B62, (E/Z)-2-(2-(3-((1-(2,6-dimethoxy-4-(1,4,5-trimethyl-6-oxo-1,6-dihydropyridin-3-yl)benzyl)azetidin-3-yl)oxy)phenyl)pyrrolidine-1-carbonyl)-4,4-dimethylpent-2-enenitrile]		
1.25 to 10	> 75	COc1cc(-c2cn(C)c(=O)c(C)c2C)cc(OC)c1C(=O)N1CCCN(Cc2cccc3c2CCN(C(=O)/C(C#N)=C/C(C)(C)C)C3C)CC1 (mixture of isomers) [Compound B65, (E/Z)-2-(5-((4-(2,6-dimethoxy-4-(1,4,5-trimethyl-6-oxo-1,6-dihydropyridin-3-yl)benzoyl)-1,4-diazepan-1-yl)methyl)-1-methyl-1,2,3,4-tetrahydroisoquinoline-2-carbonyl)-4,4-dimethylpent-2-enenitrile]		
1.25 to 10	> 75	COc1cc(-c2cn(C)c(=O)c(C)c2C)cc(OC)c1CN1CC[C@H](Oc2cccc(C3CCCN3C(=O)/C(C#N)=C/C(C)(C)C)c2)C1 (mixture of isomers) [Compound B67, (E/Z)-2-(2-(3-(((S)-1-(2,6-dimethoxy-4-(1,4,5-trimethyl-6-oxo-1,6-dihydropyridin-3-yl)benzyl)417yrrolidine-3-yl)oxy)phenyl)pyrrolidine-1-carbonyl)-4,4-dimethylpent-2-enenitrile]		
1.25 to 10	40 to 70	COc1ccc(/C=C(\C#N)C(=O)N2CCc3c(CN4CCN(Cc5c(OC)cc(-c6cn(C)c(=O)c(C)c6C)cc5OC)CC4)cccc3C2C)cn1 (mixture of isomers) [Compound B71, (E/Z)-2-(5-((4-(2,6-dimethoxy-4-(1,4,5-trimethyl-6-ox0-1,6-dihydropyridin-3-yl)benzyl)piperazin-1-yl)methyl)-1-methyl-1,2,3,4-tetrahydroisoquinoline-2-carbonyl)-3-(6-methoxypyridin-3-yl)acrylonitrile]		
